This passage reports IC50 and melting point results from PMC8587151, “Dibenzofuran Derivatives Inspired from Cercosporamide as Dual Inhibitors of Pim and CLK1 Kinases” (Molecules, 2021).

T1 sequence (Q9P1W9 whole entry): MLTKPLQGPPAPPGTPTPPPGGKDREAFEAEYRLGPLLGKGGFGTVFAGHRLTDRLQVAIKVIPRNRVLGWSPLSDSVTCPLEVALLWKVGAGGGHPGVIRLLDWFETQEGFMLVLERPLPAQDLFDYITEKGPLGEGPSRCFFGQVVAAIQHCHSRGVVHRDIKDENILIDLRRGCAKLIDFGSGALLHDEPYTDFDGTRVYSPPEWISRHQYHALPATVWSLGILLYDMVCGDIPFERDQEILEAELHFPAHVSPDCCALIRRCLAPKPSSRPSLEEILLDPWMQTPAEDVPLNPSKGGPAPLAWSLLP

One data set concerns the target T1, HsPim-2 (Homo sapiens, UniProt Q9P1W9).
T1 construct: made in house; host or cells: Escherichia coli BL21 DE3 pLysS
The data set can be described thus: Kinase assay, luminescent ADP-Glo, 10 µM ATP. The format is biochemical. Conditions: mean of n ≥ 3, read-out: IC50 Pim-2. The procedure: (§1) The synthesized compounds were tested using a luminescence-based assay against a panel of nine kinases: Pim-1, Pim-2, CDK5/p25, CDK9/CyclinT, Haspin, CK1ε, and GSK3β (from human); DYRK1A (from Rattus norvegicus); and CLK1 (from Mus musculus).
(§2) Kinase enzymatic activities were assayed with 10 µM ATP in 384-well plates using the luminescent ADP-Glo^TM assay (Promega, Madison, WI, USA) according to the recommendations of the manufacturer (see [56] for details on this method). The transmitted signal was measured using the Envision (PerkinElmer, Waltham, MA, USA) microplate luminometer and expressed in relative light unit (RLU). In order to determine the half maximal inhibitory concentration (IC50), the assays were performed in duplicate in the absence or presence of increasing doses of the tested compounds. GraphPad Prism6 software (GraphPad Software, San Diego, CA, USA) was used to fit dose–response curves and to determine the IC50 values. Kinase activities are expressed in % of maximal activity, i.e., measured in the absence of inhibitor. Peptide substrates were obtained from Proteogenix (Schiltigheim, France).
(§3) For kinases expressed in bacteria, the Escherichia coli BL21 DE3 pLysS strain (Invitrogen, ThermoFisher Scientific, Waltham, MA, USA) was transformed with pGEX-2T-1 (Sigma-Aldrich, St. Louis, MO, USA) containing the coding region of the corresponding kinase. For kinases expressed in Sf9 insect cells, the coding region of the corresponding kinase was cloned in pFastBac^TM vector. Purification of the recombinant kinases was performed following the protocol “Bac-to-Bac® Baculovirus Expression System” provided by the manufacturer (Invitrogen, ThermoFisher Scientific, Waltham, MA, USA).
(§4) To validate the kinase assay, model inhibitors were used for each tested enzyme: Staurosporine from Streptomyces sp. (#S5921, purity ≥ 95%, Sigma-Aldrich) for HsCK1ε; Indirubin-30-oxime (#I0404, purity ≥ 98%, Sigma-Aldrich) for HsGSK-3β, HsPim-1 and 2, human cyclin-dependent kinases, RnDYRK1A and MmCLK1; CHR-6494 (#SML0648, purity ≥ 98%, Sigma-Aldrich) for Haspin.
In the case of `CC(=O)c1cc2c(cc1O)oc1c(C(N)=O)c(O)cc(O)c12` [Compound 43, 8-Acetyl-1,3,7-trihydroxydibenzo[b,d]furan-4-carboxamide], the half-maximal inhibitory concentration (IC50) turned out to be 140 nM.

The target of the next data set is T2, HsPim-1 (Homo sapiens, UniProt P11309).
T2 construct: made in house; host or cells: Escherichia coli BL21 DE3 pLysS
T2 sequence (P11309 whole entry): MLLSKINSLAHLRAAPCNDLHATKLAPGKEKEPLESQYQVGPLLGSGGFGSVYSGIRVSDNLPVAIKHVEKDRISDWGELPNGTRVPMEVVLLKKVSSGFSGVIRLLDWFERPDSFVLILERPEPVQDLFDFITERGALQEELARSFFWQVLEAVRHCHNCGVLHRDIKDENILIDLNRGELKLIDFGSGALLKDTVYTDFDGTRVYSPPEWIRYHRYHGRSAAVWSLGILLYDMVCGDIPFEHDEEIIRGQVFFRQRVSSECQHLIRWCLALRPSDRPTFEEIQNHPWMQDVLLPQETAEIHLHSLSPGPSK
The data set can be described thus: Kinase assay, luminescent ADP-Glo, 10 µM ATP. The format is biochemical. Conditions: Table 1; ADP-Glo, 10 µM ATP, duplicate; read-out: Kinase Enzymatic IC50 Pim-1. Here is the method: as §1, §2, §3, §4
On to `COc1cc(OC)c2c(oc3c([N+](=O)[O-])cccc32)c1C(N)=O` [Compound 14, 1,3-Dimethoxy-6-nitrodibenzo[b,d]furan-4-carboxamide], for which the IC50 was 3210 nM.

As to `NC(=O)c1c(O)cc(O)c2c1oc1c([N+](=O)[O-])cccc12` [Compound 15, 1,3-Dihydroxy-6-nitrodibenzo[b,d]furan-4-carboxamide], the IC50 came to 180 nM.

Consider `COc1cc(OC)c2c(oc3c(N)cccc32)c1C(N)=O` [Compound 18, 6-Amino-1,3-dimethoxydibenzo[b,d]furan-4-carboxamide], for which the IC50 is > 10000 nM.

In the case of `CC(=O)c1cc2c(cc1O)oc1c(C(N)=O)c(O)cc(O)c12` [Compound 43, 8-Acetyl-1,3,7-trihydroxydibenzo[b,d]furan-4-carboxamide], the half-inhibitory concentration (IC50) was 820 nM.

Staying with this data set, now noted: Table 2; ADP-Glo, 10 µM ATP, mean of n ≥ 3; read-out: IC50 Pim-1.
With `NC(=O)c1c(O)cc(O)c2c1oc1c([N+](=O)[O-])cccc12` [Compound 15, 1,3-Dihydroxy-6-nitrodibenzo[b,d]furan-4-carboxamide], the IC50 came out at 180 nM.

For the compound `CC(=O)c1cc2c(cc1O)oc1c(C(N)=O)c(O)cc(O)c12` [Compound 43, 8-Acetyl-1,3,7-trihydroxydibenzo[b,d]furan-4-carboxamide], the half-maximal inhibitory concentration (IC50) was found to be 820 nM.

A further data set deals with L929 cells. In words: MTT assay, in vitro toxicity on normal cells. The format is cell-based. Conditions: 72 h, normal mouse fibroblasts. From the text:
(§5) Various types of hematological malignancies were selected for in vitro testing: the human acute myeloid leukemia (AML) cell line MV4-11, and the human chronic myeloid leukemia (CML) cell lines KU812 and K562. Indeed, Pim kinases are overexpressed in a wide range of hematopoietic malignancies. Solid tumors were also included in the panel of tested cell lines: MCF-7 (human breast adenocarcinoma), HT-29 (human colon adenocarcinoma), and HeLa (human cervical cancer) cells. Cytotoxic effects were evaluated using an MTT assay, and living cells were also counted with the trypan blue dye exclusion method for MV4-11, KU812, and K562 cells.
(§6) The cancer cell lines MCF-7, HT-29, and HeLa were obtained from Cell Bank of Rio de Janeiro, Brazil, and were grown in RPMI-1640 medium and L929 cells were grown in Dulbecco’s Modified Eagle’s Medium (DMEM). Both media were supplemented with fetal bovine serum (FBS) (10% of the final concentration) followed by treatment with penicillin and streptomycin as antibiotics (1% of the final concentration). The crude was incubated in the presence of CO2 atmosphere (5%) for 24 h with the temperature monitored and maintained at 37 °C.
(§7) MCF-7, HT-29, HeLa, and L929 cells (3×10^5 cells/mL) were plated in 96-well plates and incubated in the presence of CO2 atmosphere (5%) for 24 h at 37 °C. […] Then, 25 μL of MTT (5 mg/mL in PBS) were added to each well and the plates were left for another 3 h in the incubator at 37 °C and at the end of this period, the supernatant was aspirated. To perform the reading, 100 μL of dimethylsulfoxide (DMSO) were added in each well for the dissolution of the formazan crystals. The amount of formazan was measured by reading the plate at 560 nm absorbance. […] Each sample was tested in triplicate in two independent experiments.
Turning to `NC(=O)c1c(O)cc(O)c2c1oc1c([N+](=O)[O-])cccc12` [Compound 15, 1,3-Dihydroxy-6-nitrodibenzo[b,d]furan-4-carboxamide], half-maximal inhibition (IC50) was put at 49.2 ± 1 µM.

On to `CC(=O)c1cc2c(cc1O)oc1c(C(N)=O)c(O)cc(O)c12` [Compound 43, 8-Acetyl-1,3,7-trihydroxydibenzo[b,d]furan-4-carboxamide], for which the IC50 was > 100 µM.

Test system in a further data set: not given
Experiment: not given
Conditions: not given
`COc1cc(OC)c2c(oc3c([N+](=O)[O-])cccc32)c1C(N)=O` [Compound 14, 1,3-Dimethoxy-6-nitrodibenzo[b,d]furan-4-carboxamide]: the melting point is 298 to 299 °C.

Consider `NC(=O)c1c(O)cc(O)c2c1oc1c([N+](=O)[O-])cccc12` [Compound 15, 1,3-Dihydroxy-6-nitrodibenzo[b,d]furan-4-carboxamide], for which the melting point was > 300 °C.

`COc1cc(OC)c2c(oc3c(N)cccc32)c1C(N)=O` [Compound 18, 6-Amino-1,3-dimethoxydibenzo[b,d]furan-4-carboxamide] yielded a melting point of 293 to 294 °C.

As to `CC(=O)c1cc2c(cc1O)oc1c(C(N)=O)c(O)cc(O)c12` [Compound 43, 8-Acetyl-1,3,7-trihydroxydibenzo[b,d]furan-4-carboxamide], the melting point was in the range of 335 to 336 °C.

Another data set concerns KU812 cells. In words: MTT cell proliferation assay. The format is cell-based. Conditions: Homo sapiens, 48 h, mean ± SEM.
Description: as §5
(§8) MV4-11, K562, and KU812 cell lines were obtained from the Deutshe Sammlung von Mikroorganismens und Zellkulturen (DSMZ) and maintained according to the supplier’s recommendations. All cell lines were cultured in RPMI, with 10% fetal bovine serum, 1% glutamine, and 1% penicillin/ streptomycin at 37 °C and 5% CO2.
(§9) MV4-11, K562, and KU812 cells’ viability was studied using a MTT cell proliferation assay.
(§10) MV4-11, K562, and KU812 cells were incubated with 10 μL of MTT working solution (5 g/L of methylthiazolyldiphenyl-tetrazolium bromide from Sigma Aldrich, Lyon, France) for 4 h. Cells were then lysed overnight at 37 °C with 100 μL of 10% SDS and 0.003% HCl. Optical density (OD) at 570 nm was measured using a spectrophotometer CLARIOstar® (BMG Labtech, Offenburg, Germany). Living cells were also counted with the trypan blue dye exclusion method. […] Data were collected from at least three independent experiments and the values reported are means ± standard errors of the mean (SEM).
As for `NC(=O)c1c(O)cc(O)c2c1oc1c([N+](=O)[O-])cccc12` [Compound 15, 1,3-Dihydroxy-6-nitrodibenzo[b,d]furan-4-carboxamide], half-maximal inhibition (IC50) was put at 78.4 ± 2.1 µM.

For `CC(=O)c1cc2c(cc1O)oc1c(C(N)=O)c(O)cc(O)c12` [Compound 43, 8-Acetyl-1,3,7-trihydroxydibenzo[b,d]furan-4-carboxamide], the half-maximal inhibitory concentration (IC50) is > 100 µM.

A further data set relates to K562 cells. The data set can be described thus: MTT cell proliferation assay. The format is cell-based. Conditions: Homo sapiens, 48 h, mean ± SEM.
Description: as §5, §8, §9, §10
As for `NC(=O)c1c(O)cc(O)c2c1oc1c([N+](=O)[O-])cccc12` [Compound 15, 1,3-Dihydroxy-6-nitrodibenzo[b,d]furan-4-carboxamide], the IC50 was > 100 µM.

Take `CC(=O)c1cc2c(cc1O)oc1c(C(N)=O)c(O)cc(O)c12` [Compound 43, 8-Acetyl-1,3,7-trihydroxydibenzo[b,d]furan-4-carboxamide]: the concentration for half-maximal inhibition (IC50) was > 100 µM.

Another data set relates to MV4-11 cells. The data set can be described thus: MTT cell proliferation assay. The format is cell-based, human. The conditions noted are these: Homo sapiens, MV4-11, 48 h, mean ± SEM.
Description: as §5, §8, §9, §10
With `NC(=O)c1c(O)cc(O)c2c1oc1c([N+](=O)[O-])cccc12` [Compound 15, 1,3-Dihydroxy-6-nitrodibenzo[b,d]furan-4-carboxamide], the IC50 was 30.7 ± 1.1 µM.

`CC(=O)c1cc2c(cc1O)oc1c(C(N)=O)c(O)cc(O)c12` [Compound 43, 8-Acetyl-1,3,7-trihydroxydibenzo[b,d]furan-4-carboxamide] gave a half-inhibitory concentration (IC50) of 52.2 ± 1.7 µM.

A further data set relates to HeLa cells. The data set can be described thus: MTT cytotoxicity assay. Conditions: Homo sapiens, 72 h. The format is cell-based.
Description: as §5, §6, §7
With `NC(=O)c1c(O)cc(O)c2c1oc1c([N+](=O)[O-])cccc12` [Compound 15, 1,3-Dihydroxy-6-nitrodibenzo[b,d]furan-4-carboxamide], the 50% inhibitory concentration (IC50) amounted to 24.7 ± 6.7 µM.

For `CC(=O)c1cc2c(cc1O)oc1c(C(N)=O)c(O)cc(O)c12` [Compound 43, 8-Acetyl-1,3,7-trihydroxydibenzo[b,d]furan-4-carboxamide], the IC50 stood at 57.1 ± 7.6 µM.

For another data set, the system named is MCF-7 cells. In words: MTT cytotoxicity assay. The format is cell-based. Conditions: Homo sapiens, MCF7, 72 h.
Description: as §5, §6, §7
For `NC(=O)c1c(O)cc(O)c2c1oc1c([N+](=O)[O-])cccc12` [Compound 15, 1,3-Dihydroxy-6-nitrodibenzo[b,d]furan-4-carboxamide], the IC50 is > 100 µM.

Regarding `CC(=O)c1cc2c(cc1O)oc1c(C(N)=O)c(O)cc(O)c12` [Compound 43, 8-Acetyl-1,3,7-trihydroxydibenzo[b,d]furan-4-carboxamide], the half-inhibitory concentration (IC50) was > 100 µM.
